From patent US20260092071A1, “COMPOUNDS AND COMPOSITIONS AS SMARCA2/4 DEGRADERS AND USES THEREOF” (REGENTS OF THE UNIVERSITY OF MICHIGAN, priority 2022, published 2026)

Legend:
SMARCA2 = SMARCA2 (Homo sapiens, UniProt P51531); experiment: HiBit assay in engineered HT1080 CRISPR knock-in cell, 6 hrs (B series), SMARCA2; assay type: cell-based; conditions: 6 hrs incubation; for DC50: HT1080 CRISPR knock-in cells, read-out: SMARC A2 HT1080 HiBit DC50; for Dmax: HT-1080, HT1080 CRISPR knock-in cells, read-out: SMARC A2 HT1080 HiBit Dmax (%)
In short: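 Compounds were dispensed first, then HT1080 knock-in cells added and incubated for 6 hrs at 37° C. Next, detection reagent containing LgBiT and lytic substrate was added. Plates were shaken 10 min and centrifuged, and luminescence was measured.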

SMARCA4 = SMARCA4 (Homo sapiens, UniProt P51532); experiment: HiBit assay in engineered HT1080 CRISPR knock-in cell, 6 hrs (B series), SMARCA4; assay type: cell-based; conditions: 6 hrs incubation; for DC50: HT1080 CRISPR knock-in cells, read-out: SMARC A4 HT1080 HiBit DC50; for Dmax: HT-1080, HT1080 CRISPR knock-in cells, read-out: SMARC A4 HT1080 HiBit Dmax(%)
In short: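 Using a 6 hr treatment window at 37° C and 5% CO2, tagged HT1080 knock-in cells were exposed to test compounds with DMSO vehicle held at 0.1%. Signal came from lytic LgBiT/substrate reagent added after incubation, with control wells lacking LgBiT, and was read as luminescence.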

SMARCA4, sequence (P51532 whole entry): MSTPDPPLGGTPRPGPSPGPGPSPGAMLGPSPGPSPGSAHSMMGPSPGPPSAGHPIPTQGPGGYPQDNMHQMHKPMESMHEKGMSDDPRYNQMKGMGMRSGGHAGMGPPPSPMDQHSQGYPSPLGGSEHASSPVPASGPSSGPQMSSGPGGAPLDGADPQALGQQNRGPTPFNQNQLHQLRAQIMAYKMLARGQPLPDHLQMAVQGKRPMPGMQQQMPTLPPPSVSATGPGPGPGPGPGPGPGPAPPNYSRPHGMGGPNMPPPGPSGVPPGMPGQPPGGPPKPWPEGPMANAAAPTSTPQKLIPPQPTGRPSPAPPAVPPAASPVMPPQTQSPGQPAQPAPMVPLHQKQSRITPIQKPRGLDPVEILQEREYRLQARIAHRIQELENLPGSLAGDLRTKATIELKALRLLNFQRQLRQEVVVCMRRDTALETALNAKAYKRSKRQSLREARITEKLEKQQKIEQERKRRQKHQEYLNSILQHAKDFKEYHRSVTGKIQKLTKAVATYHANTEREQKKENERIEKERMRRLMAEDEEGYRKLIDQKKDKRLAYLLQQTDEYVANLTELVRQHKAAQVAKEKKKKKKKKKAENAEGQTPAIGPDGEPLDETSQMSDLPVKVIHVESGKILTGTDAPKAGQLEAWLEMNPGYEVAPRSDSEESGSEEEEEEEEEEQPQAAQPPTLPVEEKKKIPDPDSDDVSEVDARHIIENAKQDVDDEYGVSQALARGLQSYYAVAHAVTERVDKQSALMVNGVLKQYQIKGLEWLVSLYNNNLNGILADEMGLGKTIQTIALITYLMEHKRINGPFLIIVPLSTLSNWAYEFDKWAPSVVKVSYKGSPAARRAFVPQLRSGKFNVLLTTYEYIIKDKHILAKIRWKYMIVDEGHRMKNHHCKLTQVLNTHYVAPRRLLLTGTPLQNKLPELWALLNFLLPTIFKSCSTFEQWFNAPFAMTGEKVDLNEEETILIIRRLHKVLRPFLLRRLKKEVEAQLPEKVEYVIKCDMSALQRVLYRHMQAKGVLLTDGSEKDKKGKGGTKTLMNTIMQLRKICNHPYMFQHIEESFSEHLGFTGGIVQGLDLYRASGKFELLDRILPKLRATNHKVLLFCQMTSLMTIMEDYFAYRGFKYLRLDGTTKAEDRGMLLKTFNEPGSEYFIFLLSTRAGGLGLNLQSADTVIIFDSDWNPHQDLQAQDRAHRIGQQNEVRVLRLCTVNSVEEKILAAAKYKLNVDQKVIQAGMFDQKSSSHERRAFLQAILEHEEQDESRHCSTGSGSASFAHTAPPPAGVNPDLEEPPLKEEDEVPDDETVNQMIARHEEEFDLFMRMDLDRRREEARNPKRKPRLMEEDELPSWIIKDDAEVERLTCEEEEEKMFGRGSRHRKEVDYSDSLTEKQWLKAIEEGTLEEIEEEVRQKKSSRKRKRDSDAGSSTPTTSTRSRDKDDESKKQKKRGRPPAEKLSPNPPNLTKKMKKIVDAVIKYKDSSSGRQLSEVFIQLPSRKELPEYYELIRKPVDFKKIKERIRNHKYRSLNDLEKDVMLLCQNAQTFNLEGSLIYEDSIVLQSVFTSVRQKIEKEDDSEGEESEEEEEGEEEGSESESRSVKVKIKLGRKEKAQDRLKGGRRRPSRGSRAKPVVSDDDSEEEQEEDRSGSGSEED
SMARCA2, sequence (P51531 whole entry): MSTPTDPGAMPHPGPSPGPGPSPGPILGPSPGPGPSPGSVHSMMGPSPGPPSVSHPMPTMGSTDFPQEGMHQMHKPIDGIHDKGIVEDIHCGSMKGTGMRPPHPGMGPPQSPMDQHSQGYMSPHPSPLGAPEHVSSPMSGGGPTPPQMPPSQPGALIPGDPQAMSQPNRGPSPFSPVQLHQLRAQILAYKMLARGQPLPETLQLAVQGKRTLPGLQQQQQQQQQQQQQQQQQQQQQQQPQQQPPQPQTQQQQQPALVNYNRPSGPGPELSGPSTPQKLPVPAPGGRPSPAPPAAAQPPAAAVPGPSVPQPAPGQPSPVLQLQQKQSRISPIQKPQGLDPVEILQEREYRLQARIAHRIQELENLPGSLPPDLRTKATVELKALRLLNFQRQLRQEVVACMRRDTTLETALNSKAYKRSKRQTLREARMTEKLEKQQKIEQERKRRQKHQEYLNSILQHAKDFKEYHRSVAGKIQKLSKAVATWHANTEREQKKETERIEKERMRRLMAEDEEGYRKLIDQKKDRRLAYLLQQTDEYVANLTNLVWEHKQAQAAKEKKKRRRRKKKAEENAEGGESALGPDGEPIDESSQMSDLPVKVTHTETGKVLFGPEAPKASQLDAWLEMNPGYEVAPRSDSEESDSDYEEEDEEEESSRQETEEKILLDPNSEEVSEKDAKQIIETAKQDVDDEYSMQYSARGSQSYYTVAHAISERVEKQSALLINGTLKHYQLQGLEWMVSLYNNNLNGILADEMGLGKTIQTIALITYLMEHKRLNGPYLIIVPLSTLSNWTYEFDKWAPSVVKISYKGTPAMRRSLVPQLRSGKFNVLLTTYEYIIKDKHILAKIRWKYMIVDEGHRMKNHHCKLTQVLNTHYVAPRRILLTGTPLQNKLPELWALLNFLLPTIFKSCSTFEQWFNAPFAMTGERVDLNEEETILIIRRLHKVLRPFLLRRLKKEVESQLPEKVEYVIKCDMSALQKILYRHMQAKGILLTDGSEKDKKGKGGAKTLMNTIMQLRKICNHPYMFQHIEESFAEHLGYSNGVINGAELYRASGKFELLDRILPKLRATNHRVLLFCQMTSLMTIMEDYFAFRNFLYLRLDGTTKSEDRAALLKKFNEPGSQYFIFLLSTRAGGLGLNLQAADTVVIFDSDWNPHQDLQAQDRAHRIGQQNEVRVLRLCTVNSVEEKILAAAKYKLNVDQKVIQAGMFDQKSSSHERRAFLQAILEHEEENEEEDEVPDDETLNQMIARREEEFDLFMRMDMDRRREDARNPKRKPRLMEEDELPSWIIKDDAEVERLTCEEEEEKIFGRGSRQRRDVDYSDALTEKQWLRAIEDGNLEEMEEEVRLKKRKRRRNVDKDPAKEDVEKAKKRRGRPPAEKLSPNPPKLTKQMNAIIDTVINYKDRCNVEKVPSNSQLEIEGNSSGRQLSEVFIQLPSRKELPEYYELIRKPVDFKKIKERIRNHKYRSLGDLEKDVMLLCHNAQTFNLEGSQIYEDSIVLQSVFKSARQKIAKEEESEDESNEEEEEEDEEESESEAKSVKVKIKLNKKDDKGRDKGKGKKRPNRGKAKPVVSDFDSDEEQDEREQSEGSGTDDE

Compound	DC50 (SMARCA2) [nM]	Dmax (SMARCA2) [%]	DC50 (SMARCA4) [nM]	Dmax (SMARCA4) [%]
Cc1ncsc1-c1ccc([C@H](CCCCCn2cc(-c3ccc4c(c3)C(C)(C)c3nc(=O)c5c(Cl)cccc5n3-4)cn2)NC(=O)[C@@H]2C[C@@H](O)CN2C(=O)[C@@H](NC(=O)C2(F)CC2)C(C)(C)C)cc1 [Compound B56, (2S,4R)—N—((S)-6-(4-(4-chloro-7,7-dimethyl-5-oxo-5,7-dihydroindolo[1,2-a]quinazolin-9-yl)-1H-pyrazol-1-yl)-1-(4-(4-methylthiazol-5-yl)phenyl)hexyl)-1-((S)-2-(1-fluorocyclopropane-1-carboxamido)-3,3-dimethylbutanoyl)-4-hydroxypyrrolidine-2-carboxamide]	100 to 500	< 50	> 1000	< 50
Cc1ncsc1-c1ccc([C@H](C)NC(=O)[C@@H]2C[C@@H](O)CN2C(=O)[C@H](C(C)C)n2cc(OCCN3CCC(c4ccc5c(c4)C(C)(C)c4nc(=O)c6c(Cl)cccc6n4-5)CC3)cn2)cc1 [Compound B57, (2S,4R)-1-(2-(4-(2-(4-(4-chloro-7,7-dimethyl-5-oxo-5,7-dihydroindolo[1,2-a]quinazolin-9-yl)piperidin-1-yl)ethoxy)-1H-pyrazol-1-yl)-3-methylbutanoyl)-4-hydroxy-N—((S)-1-(4-(4-methylthiazol-5-yl)phenyl)ethyl)pyrrolidine-2-carboxamide]	100 to 500	70 to 90	501 to 1000	< 50
Cc1ncsc1-c1ccc([C@H](C)NC(=O)[C@@H]2C[C@@H](O)CN2C(=O)[C@H](C(C)C)n2cc(CCCN3CCC(c4ccc5c(c4)-n4c(nc(=O)c6c(Cl)cccc64)C5(C)C)CC3)nn2)cc1 [Compound B58, (2S,4R)-1-((S)-2-(4-(3-(4-(4-chloro-7,7-dimethyl-5-oxo-5,7-dihydroindolo[1,2-a]quinazolin-10-yl)piperidin-1-yl)propyl)-1H-1,2,3-triazol-1-yl)-3-methylbutanoyl)-4-hydroxy-N-((S)-1-(4-(4-methylthiazol-5-yl)phenyl)ethyl)pyrrolidine-2-carboxamide]	< 100	> 90	< 100	70 to 90
CNC(=O)[C@@H]1C[C@@H](O)CN1C(=O)[C@H](C(C)C)n1cc([C@H]2CC[C@H](CN3CCC(c4ccc5c(c4)-n4c(nc(=O)c6c(Cl)cccc64)C5(C)C)CC3)CC2)nn1 [Compound B59, (2S,4R)-1-((S)-2-(4-((1r,4S)-4-((4-(4-chloro-7,7-dimethyl-5-oxo-5,7-dihydroindolo[1,2-a]quinazolin-10-yl)piperidin-1-yl)methyl)cyclohexyl)-1H-1,2,3-triazol-1-yl)-3-methylbutanoyl)-4-hydroxy-N-methylpyrrolidine-2-carboxamide]	100 to 500	50 to 69	> 1000	< 50
Cc1ncsc1-c1ccc([C@H](C)NC(=O)[C@@H]2C[C@@H](O)CN2C(=O)[C@@H](c2cc(OCCn3cc(-c4ccc5c(c4)-n4c(nc(=O)c6c(Cl)cccc64)C5(C)C)cn3)no2)C(C)C)cc1 [Compound B60, (2S,4R)-1-(2-(3-(2-(4-(4-chloro-7,7-dimethyl-5-oxo-5,7-dihydroindolo[1,2-a]quinazolin-10-yl)-1H-pyrazol-1-yl)ethoxy)isoxazol-5-yl)-3-methylbutanoyl)-4-hydroxy-N-((S)-1-(4-(4-methylthiazol-5-yl)phenyl)ethyl)pyrrolidine-2-carboxamide]	< 100	< 50	< 100	< 50
Cc1ncsc1-c1ccc([C@H](C)NC(=O)[C@@H]2C[C@@H](O)CN2C(=O)[C@H](C(C)C)n2cc(CCCCCN3CCC(c4ccc5c(c4)-n4c(nc(=O)c6c(Cl)cccc64)C5(C)C)CC3)nn2)cc1 [Compound B61, (2S,4R)-1-((S)-2-(4-(5-(4-(4-chloro-7,7-dimethyl-5-oxo-5,7-dihydroindolo[1,2-a]quinazolin-10-yl)piperidin-1-yl)pentyl)-1H-1,2,3-triazol-1-yl)-3-methylbutanoyl)-4-hydroxy-N-((S)-1-(4-(4-methylthiazol-5-yl)phenyl)ethyl)pyrrolidine-2-carboxamide]	< 100	> 90	< 100	70 to 90

The next lines start with the values.

DC50 (SMARCA2) [nM]	Dmax (SMARCA2) [%]	DC50 (SMARCA4) [nM]	Dmax (SMARCA4) [%]	Compound
< 100	50 to 69	> 1000	< 50	Cc1ncsc1-c1ccc([C@H](C)NC(=O)[C@@H]2C[C@@H](O)CN2C(=O)C(c2cc(CN3CCC(c4ccc5c(c4)-n4c(nc(=O)c6c(Cl)cccc64)C5(C)C)CC3)no2)C(C)C)cc1 (stereo partly drawn) [Compound B62, (2S,4R)-1-(2-(3-((4-(4-chloro-7,7-dimethyl-5-oxo-5,7-dihydroindolo[1,2-a]quinazolin-10-yl)piperidin-1-yl)methyl)isoxazol-5-yl)-3-methylbutanoyl)-4-hydroxy-N-((S)-1-(4-(4-methylthiazol-5-yl)phenyl)ethyl)pyrrolidine-2-carboxamide]
< 100	> 90	100 to 500	< 50	Cc1ncsc1-c1ccc([C@H](C)NC(=O)[C@@H]2C[C@@H](O)CN2C(=O)[C@@H](NC(=O)CC2CCC(N3CCC(c4ccc5c(c4)-n4c(nc(=O)c6c(Cl)cccc64)C5(C)C)CC3)CC2)C(C)(C)C)cc1 (stereo partly drawn) [Compound B63, (2S,4R)-1-((S)-2-(2-(4-(4-(4-chloro-7,7-dimethyl-5-oxo-5,7-dihydroindolo[1,2-a]quinazolin-10-yl)piperidin-1-yl)cyclohexyl)acetamido)-3,3-dimethylbutanoyl)-4-hydroxy-N-((S)-1-(4-(4-methylthiazol-5-yl)phenyl)ethyl)pyrrolidine-2-carboxamide]
100 to 500	< 50	> 1000	< 50	Cc1ncsc1-c1ccc([C@H](C)NC(=O)[C@@H]2C[C@@H](O)CN2C(=O)[C@@H](NC(=O)CCCCn2cc(-c3ccc4c(c3)-n3c(nc(=O)c5c(Cl)cccc53)C4(C)C)cn2)C(C)(C)C)cc1 [Compound B64, (2S,4R)-1-((S)-2-(5-(4-(4-chloro-7,7-dimethyl-5-oxo-5,7-dihydroindolo[1,2-a]quinazolin-10-yl)-1H-pyrazol-1-yl)pentanamido)-3,3-dimethylbutanoyl)-4-hydroxy-N-((S)-1-(4-(4-methylthiazol-5-yl)phenyl)ethyl)pyrrolidine-2-carboxamide]
100 to 500	< 50	> 1000	< 50	C[C@H](NC(=O)[C@@H]1C[C@@H](O)CN1C(=O)[C@@H](NC(=O)[C@H]1CC[C@H](C(=O)N2CCC(c3ccc4c(c3)-n3c(nc(=O)c5c(Cl)cccc53)C4(C)C)CC2)CC1)C(C)(C)C)c1ccc(-c2ncnn2C)cc1 [Compound B65, (2S,4R)-1-((S)-2-((1r,4S)-4-(4-(4-chloro-7,7-dimethyl-5-oxo-5,7-dihydroindolo[1,2-a]quinazolin-10-yl)piperidine-1-carbonyl)cyclohexane-1-carboxamido)-3,3-dimethylbutanoyl)-4-hydroxy-N-((S)-1-(4-(1-methyl-1H-1,2,4-triazol-5-yl)phenyl)ethyl)pyrrolidine-2-carboxamide]
< 100	> 90	< 100	> 90	Cc1ncsc1-c1ccc([C@H](C)NC(=O)[C@@H]2C[C@@H](O)CN2C(=O)[C@H](C(C)C)n2cc(C3CCN(CCCN4CCC(c5ccc6c(c5)-n5c(nc(=O)c7c(Cl)cccc75)C6(C)C)CC4)CC3)nn2)cc1 [Compound B66, (2S,4R)-1-((S)-2-(4-(1-(3-(4-(4-chloro-7,7-dimethyl-5-oxo-5,7-dihydroindolo[1,2-a]quinazolin-10-yl)piperidin-1-yl)propyl)piperidin-4-yl)-1H-1,2,3-triazol-1-yl)-3-methylbutanoyl)-4-hydroxy-N—((S)-1-(4-(4-methylthiazol-5-yl)phenyl)ethyl)pyrrolidine-2-carboxamide]
< 100	> 90	< 100	70 to 90	Cc1ncsc1-c1ccc([C@H](C)NC(=O)[C@@H]2C[C@@H](O)CN2C(=O)[C@H](C(C)C)n2cc(C3CCN(CCN4CCC(c5ccc6c(c5)-n5c(nc(=O)c7c(Cl)cccc75)C6(C)C)CC4)CC3)nn2)cc1 [Compound B67, (2S,4R)-1-((S)-2-(4-(1-(2-(4-(4-chloro-7,7-dimethyl-5-oxo-5,7-dihydroindolo[1,2-a]quinazolin-10-yl)piperidin-1-yl)ethyl)piperidin-4-yl)-1H-1,2,3-triazol-1-yl)-3-methylbutanoyl)-4-hydroxy-N-((S)-1-(4-(4-methylthiazol-5-yl)phenyl)ethyl)pyrrolidine-2-carboxamide]
< 100	> 90	501 to 1000	< 50	Cc1ncsc1-c1ccc([C@H](C)NC(=O)[C@@H]2C[C@@H](O)CN2C(=O)[C@@H](n2cc([C@H](C)N3CCC(c4ccc5c(c4)-n4c(nc(=O)c6c(Cl)cccc64)C5(C)C)CC3)nn2)C(C)(C)C)cc1 [Compound B68, (2S,4R)-1-((S)-2-(4-((S)-1-(4-(4-chloro-7,7-dimethyl-5-oxo-5,7-dihydroindolo[1,2-a]quinazolin-10-yl)piperidin-1-yl)ethyl)-1H-1,2,3-triazol-1-yl)-3,3-dimethylbutanoyl)-4-hydroxy-N-((S)-1-(4-(4-methylthiazol-5-yl)phenyl)ethyl)pyrrolidine-2-carboxamide]
